Reference: patent EP0183129A1, “Quinolonecarboxylic acid derivatives” (KYORIN PHARMACEUTICAL CO., LTD., priority 1984, dated 1986)
Values after ≈ are worked out from the molar mass of the structure shown. Where two headings read alike, the source gives them in different places.

Assays:
M. pneumoniae Mac. = experiment: In vitro antibacterial activity against Mycoplasma, MIC; format: cell-based; conditions: Mycoplasmoides pneumoniae, 120 h; M. pneumoniae Mac.; no visible growth after incubation for 5 days; read-out: MIC
From the text: Experiment-3 In vitro antibacterial activity against Mycoplasma

[1] = test system: S. aureus IID 670 (Terajima); experiment: In vitro antibacterial activity, MIC (standard strain); format: cell-based, Staphylococcus aureus; conditions: S. aureus IID 670 (Terajima); 10^6 cells/ml; standard strain; listed as Exp.4
[2] = test system: Enterobacter cloacae IID 977; experiment: as above; format: cell-based; conditions: Enterobacter cloacae IID 977; 10^6 cells/ml; standard strain; listed as Exp.4
B. fragilis 25285 = experiment: as above; format: cell-based, Bacteroides fragilis; conditions: B. fragilis 25285; 10^6 cells/ml; standard strain; listed as Exp.4
S. pneumoniae S-4288 = experiment: In vivo antibacterial activity against systemic infection in mice; design: species or system mice (ICR-S); conditions: Streptococcus pneumoniae, S4288; mice (ICR-S); oral, an hour after intraperitoneal infection; challenge dose 7.5 x 10^4 ~ 4.8 x 10^6 cfu/mouse; read-out: ED50 S. pneumoniae S-4288
Protocol: (§1) Experiment-2 In vivo antibacterial activity against systemic infection in mice (ICR-S)
(§2) The infections were produced by intraperitoneal injection of a suspension of the bacterial culture corresponding to the germ studied. The products were administered orally at an hour after the infection.

E. coli ML4707 = experiment: as above; design: species or system mice (ICR-S); conditions: Escherichia coli, ML4707; mice (ICR-S); oral, an hour after intraperitoneal infection; challenge dose 2.7 x 10^6 ~ 8.8 x 10^6 cfu/mouse; read-out: ED50 E. coli ML4707
Protocol: as §1, §2

S. aureus Smith = experiment: as above; design: species or system mice (ICR-S); conditions: Staphylococcus aureus, po, mice (ICR-S), an hour after intraperitoneal infection
Protocol: as §1, §2

[3] = test system: Escherichia coli NIHJ JC-2; experiment: In vitro antibacterial activity, MIC (standard strain); format: cell-based; conditions: Escherichia coli NIHJ JC-2; 10^6 cells/ml; standard strain; listed as Exp.4
[4] = test system: Fusobacterium varium KYA 8501; experiment: as above; format: cell-based; conditions: Fusobacterium varium KYA 8501; 10^6 cells/ml; standard strain; listed as Exp.4
[5] = test system: Alcaligenes faecalis 0104002; experiment: as above; format: cell-based; conditions: Alcaligenes faecalis 0104002; 10^6 cells/ml; standard strain; listed as Exp.4
[6] = test system: Acinetobacter anitratus IID 876; experiment: as above; format: cell-based; conditions: Acinetobacter anitratus IID 876; 10^6 cells/ml; standard strain; listed as Exp.4
[7] = test system: Serratia marcescens IID 618; experiment: as above; format: cell-based; conditions: Serratia marcescens IID 618; 10^6 cells/ml; standard strain; listed as Exp.4
S. epidermidis IID 866 = experiment: as above; format: cell-based; conditions: S. epidermidis IID 866; 10^6 cells/ml; standard strain; listed as Exp.4
P. aeruginosa IFO 12689 = experiment: as above; format: cell-based, Pseudomonas aeruginosa; conditions: P. aeruginosa IFO 12689; 10^6 cells/ml; standard strain
B. fragilis 0558 = experiment: as above; format: cell-based, Bacteroides fragilis; conditions: B. fragilis 0558; 10^6 cells/ml; standard strain; listed as Exp.4

NCC1CCN(c2c(F)cc3c(=O)c(C(=O)O)cn(C4CC4)c3c2F)C1 (stereo not shown) [Example 4, 7-(3-Aminomethyl-1-pyrrolidinyl)-1-cyclopropyl-6,8-difluoro-1,4-dihydro-4-oxo-3-quinolinecarboxylic acid]
MIC (M. pneumoniae Mac.): 0.025 µg/mL (≈ 0.0688 µM) | MIC [1]: 0.025 µg/mL (≈ 0.0688 µM) | MIC [2]: 0.05 µg/mL (≈ 0.138 µM) | MIC (B. fragilis 25285): 0.78 µg/mL (≈ 2.15 µM) | ED50 (S. pneumoniae S-4288): 13.8 mg/kg | ED50 (E. coli ML4707): 3 mg/kg | ED50 (S. aureus Smith; challenge dose 5.5 x 10^5 cfu/mouse, n=5, read-out: ED50 against S. aureus Smith): 1.57 mg/kg | ED50 (S. aureus Smith; challenge dose 6.0 x 10^5 cfu/mouse, read-out: ED50 S. aureus Smith): 1.8 mg/kg | MIC [3]: 0.0125 µg/mL (≈ 0.0344 µM) | MIC [4]: 1.56 µg/mL (≈ 4.29 µM) | MIC [5]: 0.78 µg/mL (≈ 2.15 µM) | MIC [6]: 0.05 µg/mL (≈ 0.138 µM) | MIC [7]: 0.10 µg/mL (≈ 0.275 µM) | MIC (S. epidermidis IID 866): 0.025 µg/mL (≈ 0.0688 µM) | MIC (P. aeruginosa IFO 12689): 0.39 µg/mL (≈ 1.07 µM) | MIC (B. fragilis 0558): 0.78 µg/mL (≈ 2.15 µM)
